Here are results for two compounds from patent publication US20110263539A1, “SHIP 1 MODULATOR COMPOUNDS” (THE UNIVERSITY OF BRITISH COLUMBIA, priority 2006, published 2011).

For series [1], the system named is SHIP+/+ bone marrow derived macrophages. Nature of the series: LPS stimulation of SHIP+/+ bone marrow derived macrophages. Type of series: cell-based, mice. Conditions: SHIP+/+ cells, 15 μM, 10 ng/mL LPS 2 h. The method, then: (§1) Bone marrow cells were aspirated from 4 to 8 week old C57B16×129Sv mixed background mice and SHIP and SHIP cells prepared as described previously. Bone marrow derived macrophages from SHIP^+/+ and SHIP^−/− mice were obtained and maintained in IMDM supplemented with 10% FCS, 150 μM MTG, 2% C127 cell conditioned medium as a source of macrophage colony stimulating factor (M-CSF) (macrophage medium)
LPS stimulation of macrophages. For the analysis of LPS-stimulated TNFα production, 2×10^5 cells were plated the night before in 24 well plates in macrophage medium. The next day, the medium was changed and AQX-016A or carrier was added to cells at the indicated concentrations for 30 min prior to the addition of 10 ng/mL LPS. Supernatants were collected for TNFα determination by ELISA (BD Biosciences, Mississauga, ON, Canada). For analysis of intracellular signaling, 2×10^6 cells were plated the night before in 6 cm tissue culture plates. The next day, the cells were cultured in macrophage medium without M-CSF for 1 hr at 37° C. and then pretreated with AQX-016A or carrier for 30 min prior to the addition of 10 ng/mL LPS for 15 min. Cells were washed with 4° C. PBS and resuspended in lysis buffer (50 mM Hepes, 2 mM EDTA, 1 mM NaVO4, 100 mM NaF, 50 mM NaPPi and 1% NP40) supplemented with Complete Protease Inhibitor Cocktail (Roche, Montreal, Canada). Lysates were rocked at 4° C. for 30 min and clarified by centrifuging 20 min at 12000×g. Lysates were then made 1× in Laemmli's buffer, boiled 2 min and loaded onto 7.5% SDS polyacrylamide […]. Immunoblot analysis for phospho PKB (Cell Signalling, Mississauga, Ont), SHIP and actin (Santa Cruz, Santa Cruz, Calif.) were carried out as described previously.
The target specificity and biological efficacy of AQX-016A were assessed by comparing AQX-016A's effects on PI3K-regulated processes in primary SHIP^+/+ vs SHIP^−/− macrophages and mast cells. […] LPS stimulation of macrophages is associated with a PIP3-dependent release of pro-inflammatory mediators such as TNFα. […]

For series [2], the system named is SHIP−/− bone marrow derived macrophages. As to the kind of experiment: LPS stimulation of SHIP−/− bone marrow derived macrophages. The class given is cell-based, mice. Conditions: SHIP−/− cells, 15 μM, 10 ng/mL LPS 2 h. The method, then:
as §1
LPS stimulation of macrophages. For the analysis of LPS-stimulated TNFα production, 2×10^5 cells were plated the night before in 24 well plates in macrophage medium. The next day, the medium was changed and AQX-016A or carrier was added to cells at the indicated concentrations for 30 min prior to the addition of 10 ng/mL LPS. Supernatants were collected for TNFα determination by ELISA (BD Biosciences, Mississauga, ON, Canada). For analysis of intracellular signaling, 2×10^6 cells were plated the night before in 6 cm tissue culture plates. The next day, the cells were cultured in macrophage medium without M-CSF for 1 hr at 37° C. and then pretreated with AQX-016A or carrier for 30 min prior to the addition of 10 ng/mL LPS for 15 min. Cells were washed with 4° C. […]
The target specificity and biological efficacy of AQX-016A were assessed by comparing AQX-016A's effects on PI3K-regulated processes in primary SHIP^+/+ vs SHIP^−/− macrophages and mast cells. […]

In series [3] the test system is J774.1a macrophage cells. Nature of the series: Macrophage TNF-α production (Assay 2). Note: key: a ‘+’ indicates a positive result for desired activity; a ‘−’ indicates a negative result for desired activity. Conditions: 10 μg/mL test compound, 100 ng/mL LPS, ELISA. Type of series: cell-based. On the procedure:
Assay 2) Macrophage TNF-α production. J774.1a macrophage cells were treated with 10 μg/mL of test compound dissolved in solvent (e.g. cyclodextran) for 40 minutes prior to the addition of 100 ng/mL LPS. Culture supernatants were collected after 2 hr and 5 hr for TNF-α determination by ELISA.

For series [4], the system named is J774.1a macrophage cells. As to the kind of experiment: Macrophage TNF-α NO assay (Assay 3). Note: key: a ‘+’ indicates a positive result for desired activity; a ‘−’ indicates a negative result for desired activity. Type of series: cell-based. To be noted: 10 μg/ml test compound, LPS, 24 hr, Griess reagent. On the procedure:
Assay 3) Macrophage TNF-α NO assay. J774.1a macrophage cells were treated with 10 μg/ml of test compound dissolved in solvent for 40 minutes prior to the addition of LPS. Culture supernatants were collected after 24 hr. for determination of NO concentration using the Griess reagent.
Background: The Griess reaction detects nitrite, a stable product of nitric oxide.

The subject of series [5] is neutrophil myeloperoxidase (MPO) activity. As to the kind of experiment: Mouse acute cutaneous anaphylaxis model (Assay 5). The class given is in vivo, CD1 mice. Conditions: topical on ear, DNFB. On the procedure: Assay 5) Mouse acute cutaneous anaphylaxis model. 6-8 week old CD1 mice
(§2) (University of British Columbia Animal Facility, Vancouver, BC) were sensitized to the hapten DNP by cutaneous application of 25 μL of 0.5% dinitrofluorobenzene (DNFB) (Sigma, Oakville, Ont) in acetone to the shaved abdomen of mice for two consecutive days. 24 hrs later, test substances (dissolved in 10 μL of 1:2 DMSO:MeOH) were painted on the right ear while the left ear received vehicle control. 30 min after drug application, DNFB was applied to both ears to induce mast cell degranulation. A 6 mm punch was taken from the ear and immediately frozen on dry ice for subsequent determination of neutrophil myeloperoxidase (MPO) activity.
as §2, with “Mouse acute cutaneous anaphylaxis model. 6-8 week old CD1 mice (University” for “(University”, “activity. Compound 100's ability to inhibit cutaneous anaphylaxis was assessed.” for “activity.”
Anaphylactic or allergic responses are mediated by allergen-induced degranulation of pre-sensitized mast cells. The mouse ear edema/cutaneous anaphylaxis model involves pre-sensitization of mice with the haptenizing agent dinitrofluorobenzene (DNFB). One week later the allergic reaction is elicited by painting DNFB onto the ears of the mice. The efficacy of potential anti-inflammatory compounds is tested by topical application of the test substance to one ear and comparing the resulting ear edema or inflammation of the two ears.

In another series the test system is MM cell lines. As to the kind of experiment: In vitro Multiple Myeloma (MM) assay (Assay 7). Note: key: a ‘+’ indicates a positive result for desired activity; a ‘−’ indicates a negative result for desired activity. Type of series: cell-based. The method, then: Assay 7) In vitro Multiple Myeloma (MM) assay. The ability of SHIP activators to reduce tumor cell survival was assessed in MM cell lines treated with the test compound. The lines OPM1, OPM2, MM.1S and RPMI 8226 were plated at a density of 1×10^5 cells/mL in 200 μL of medium with various concentrations of the test compound, and viable cell numbers were determined on day 3 and day 5 by trypan blue exclusion. The lines RPMI 8226 and U266 were plated at a density of 1×10^6 cells/mL in 250 μL of medium with various concentrations of the test compound. At day 4, the medium of each culture was replaced by fresh medium containing the same concentration of test compound. At day 7, the viable cell number of each culture was determined by trypan blue exclusion.
MM cell lines were cultured in 96 well plates seeded with 3×10^4 cells suspended in 200 μL of medium along with various concentrations of test compound (and associated cyclodextran vehicle control), with LY294002 serving as a positive control in the experiments. After 24-48 hrs of culture, […] of [3H]-thymidine (GE Healthcare, Baie D'Urfe, Canada) being added for the final 8 hours. Cells were harvested and DNA associated radioactivity was measured via liquid scintillation counting using a Wallac Microbeta counter (Perkin-Elmer; Boston, Mass.).
The ability of SHIP activators to reduce tumor cell survival was assessed in multiple myeloma (MM) cell lines treated with Compound 100 or AQX-016A. The lines OPM1, OPM2, MM.1S and RPMI 8226 were plated at a density of 1×10^5 cells/mL in 200 μL of medium with various concentrations of Compound 100, and viable cell numbers were determined on day 3 and day 5 by trypan blue exclusion. The lines RPMI 8226 and U266 were plated at a density of 1×10^6 cells/mL in 250 μL of medium with various concentrations of AQX-016A. At day 4, the medium of each culture was replaced by fresh medium containing the same concentration of AQX-016A. At day 7, the viable cell number of each culture was determined by trypan blue exclusion. Experiments were performed in triplicate.
Proliferation (DNA synthesis) assays. Proliferation was measured by measuring incorporation of [^3H]-thymidine into cells. MM cell lines were cultured in 96 well plates seeded with 3×10^4 cells suspended in 200 μL, of medium along with various concentrations of Compound 100 or AQX-016A (and associated cyclodextran vehicle control), with LY294002 serving as a positive control in the indicated experiments. After 24-48 hrs of culture, 1 μCi of [^3H]-thymidine (GE Healthcare, Baie D'Urfe, Canada) being added for the final 8 hours. Plates were frozen, which also aided in cell lysis, to terminate the experiments. Cells were then harvested onto glass fibre filters using an automatic cell harvester (TomTech; Orange, Conn.) and DNA associated radioactivity was measured via liquid scintillation counting using a Wallac Microbeta counter (Perkin-Elmer; Boston, Mass.). Wells were set up in triplicate and data is expressed as mean+/−SEM.

The test system of series [6] is luciferase expressing OPM2 cells. Nature of the series: In vivo Multiple Myeloma (MM) assay (Assay 8). To be noted: 50 mg/kg every 3 days, subcutaneous oil depot. Also noted: species or system Mice. On the procedure:
Assay 8) In vivo Multiple Myeloma (MM) assay. Mice were inoculated with at two sites each with 3×10^6 luciferase expressing OPM2 cells suspended in 50 μL of growth medium and 50 μL of Matrigel basement membrane matrix (Becton Dickenson; Bedford, Mass.). Tumors were injected subcutaneously in the upper and lower flanks of the mice and allowed to establish for 2 weeks. After 2 weeks, a test compound or control vehicle was administered in a subcutaneous oil depot at a dose of 50 mg/kg every 3 days.
Tumors were measured using bioluminescence imaging on the Xenogen IVIS 200. Mice received intra-peritoneal injections of 200 μL of D-luciferin at 3.75 mg/mL in sterile PBS. Mice were then anesthetized with isofluorane and imaged 15 minutes post-injection of luciferin. Quantification of tumor size was performed using the Living Image™ software.
MM Xenograft murine model. Mice were inoculated with at two sites each with 3×10^6 luciferase expressing OPM2 cells suspended in 50 μL of growth medium and 50 μL of Matrigel basement membrane matrix (Becton Dickenson; Bedford, Mass.). Tumors were injected subcutaneously in the upper and lower flanks of the mice and allowed to establish for 2 weeks. […]
Tumors were measured using bioluminescence imaging on the Xenogen IVIS 200. […] Quantification of tumor size was performed using the Living Image™ software. […]

Another series concerns LNCaP cells. Nature of the series: PKB activation in LNCaP cells. Conditions: doses up to 60 μM. The class given is cell-based, human. On the procedure:
The ability of AQX-016A to inhibit activation of PIP3-dependent downstream signalling proteins in SHIP^+/+ vs SHIP^−/− cells was assessed. LPS stimulation of macrophages results in PKB phosphorylation. […] Similar protein loading was confirmed by reblotting with either antibodies to PKB or Grb2. […] Thus, AQX-016A inhibits PIP3-regulated intracellular signal transduction events in SHIP expressing hematopoietic cells, but not in SHIP-deficient hematopoietic or non-hematopoietic cells.

The nature of series [7]: Initial toxicology studies. Conditions: data not shown. The class given is in vivo. An excerpt:
A novel paradigm for inhibiting PI3K signaling through activation of the phosphatases that negatively regulate this pathway is provided. SHIP is a particularly good target for immune/hematopoietic disorders because of its restricted expression to hematopoietic cells. Because the relative activity of phosphatases present in a cell will influence the efficacy of kinase inhibitors, as discussed by Knight and Shokat, SHIP agonists may also be used to potentiate the activation of PI3K inhibitors and promote tissue targeting of PI3K inhibitors to the ematopoietic/immune cell compartment.

Regarding `O=c1cc(N2CCOCC2)oc2c(-c3ccccc3)cccc12` [LY294002, reference compound], the “suppression of TNFα production” value in series [1] and in series [2] was “up to −40%” throughout.
On to `Cc1cc(O)c(O)c2c1[C@]1(C)CCC3C(C)(C)CCC[C@]3(C)[C@H]1C2` (stereo partly drawn) [AQX-016A], for which the “Assay Number 2: Macrophage TNF-α production” value with J774.1a macrophage cells [3] is listed as “+”. Also, the “Assay Number 3: Macrophage NO” value in the series with J774.1a macrophage cells [4] was “+”. In addition, the “Assay Number 5: Mouse acute cutaneous anaphylaxis model” value in series [5] was “+”. Also, the “Assay Number 7: In vitro Multiple Myeloma (MM) assay” value in the series with MM cell lines was “+”. In addition, the “Assay Number 8: In vivo Multiple Myeloma (MM) assay” value in series [6] is on record as “+”. In addition, the PKB phosphorylation result with LNCaP cells is given as “no effect”. Besides, in [7], the “peripheral blood cell counts or bone marrow progenitor numbers” value is listed as “do not significantly affect”.
